Patent US20190069553A1, “METHOD FOR CONTROLLING PPO RESISTANT WEEDS” (BASF SE, priority 2016, published 2019)
Like-named read-outs stand apart in the source and are kept apart here.

How the values were obtained:
Format in all cases: in vivo
[1] = tested on: Amaranthus tamariscinus (common waterhemp, AMATA), sensitive biotype (w.10); assay: Greenhouse herbicidal activity test, third experiment, weed w.10; conditions: scale 0 to 100
[2] = tested on: Amaranthus tamariscinus (common waterhemp, AMATA), PPO resistant biotype 7 (w.11); assay: Greenhouse herbicidal activity test, third experiment, weed w.11; conditions: use rate 4 g/ha; PPO resistant biotype 7 common waterhemp; scale 0 to 100
[3] = tested on: Amaranthus tamariscinus (common waterhemp, AMATA), PPO resistant biotype 8 (w.12); assay: Greenhouse herbicidal activity test, third experiment, weed w.12; conditions: use rate 4 g/ha; PPO resistant biotype 8 common waterhemp; scale 0 to 100
[4] = tested on: Amaranthus tamariscinus (common waterhemp, AMATA), sensitive biotype (w.1); conditions: scale 0 to 100
[5] = tested on: Ambrosia elatior (common ragweed, AMBEL), sensitive biotype (w.4); conditions: scale 0 to 100
[6] = tested on: Amaranthus tuberculatus (tall waterhemp, AMATU), sensitive biotype (w.7); assay: Greenhouse herbicidal activity test, another (second) experiment, weed w.7; conditions: scale 0 to 100

Row | SMILES | Weed control (%) w.10 ([1]; use rate 2 g/ha) | Weed control (%) w.10 ([1]; use rate 4 g/ha) | Weed control (%) w.11 [2] | Weed control (%) w.12 [3] | Weed control (%) w.1 ([4]; use rate 1 g/ha) | Weed control (%) w.1 ([4]; use rate 2 g/ha) | Weed control (%) w.4 ([5]; use rate 1 g/ha) | Weed control (%) w.4 ([5]; use rate 2 g/ha) | Weed control (%) 7 ([6]; use rate 1 g/ha) | Weed control (%) 7 ([6]; use rate 2 g/ha)
1 | C#CCOc1cc(-n2nc3n(c2=O)CCCC3)c(Cl)cc1Cl [azafenidin, reference compound] | 95% | 98% | 73% | 72% |  |  |  |  |  | 
2 | CCOC(=O)COc1ncccc1Oc1cc(-n2c(=O)cc(C(F)(F)F)n(C)c2=O)c(F)cc1Cl [compound (I).1, ethyl [3-[2-chloro-4-fluoro-5-(1-methyl-6-trifluoromethyl-2,4-dioxo-1,2,3,4-tetrahydropyrimidin-3-yl)phenoxy]-2-pyridyloxy]acetate] |  |  |  |  | 100% | 100% | 100% | 100% | 100% | 100%
3 | CCOC(=O)COc1ccccc1Oc1cc(-n2c(=O)cc(C(F)(F)F)n(C)c2=O)c(F)cc1Cl [compound (I).4] | 100% | 100% | 100% | 99% |  |  |  |  |  | 
4 | C#CCN1C(=O)COc2cc(F)c(N3C(=O)C4=C(CCCC4)C3=O)cc21 [flumioxazin, reference compound] |  |  |  |  | 90% | 95% | 50% | 65% |  | 
